Data: the Kinase Knowledgebase extract (Sharma et al. 2016)

What follows are compounds tested against CDK2 (human) (UniProt P24941) (assay: Enzyme Assay).

| SMILES | Ki |
| --- | --- |
| Cn1cnc(NC(=O)CC(=O)Cc2ccc3c(=O)[nH][nH]c3c2)c1 | < 1 µM |
| O=c1[nH][nH]c2cc(Nc3nc(Nc4n[nH]c5ccccc45)c4ccccc4n3)ccc12 | < 1 µM |
| O=c1[nH][nH]c2cc(C(F)(F)F)c(-c3cc(-c4ccncc4)nc(Nc4cc(C5CC5)[nH]n4)n3)cc12 | < 1 µM |
| Cc1cc(Nc2cc(-c3ccccc3)[nH]n2)nc(COc2ccc3c(=O)[nH][nH]c3c2)n1 | < 1 µM |
| O=C(CCNc1ccc2c(=O)[nH][nH]c2c1)Nc1nccnn1 | < 1 µM |
| Cc1cnc(NCCC(Cc2ccccc2)Cc2ccc3c(=O)[nH][nH]c3c2)s1 (centres undefined) | < 1 µM |
| Cc1cc(Nc2cccc(Oc3ccc4c(=O)[nH][nH]c4c3)n2)n[nH]1 | < 1 µM |
| Cc1cnc(NCCC(=O)Oc2ccc3c(=O)[nH][nH]c3c2)s1 | < 1 µM |
| Cc1cc(Nc2nc(Sc3ccc4c(=O)[nH][nH]c4c3)nc3cc(OCCCN4CCOCC4)ccc23)n[nH]1 | < 1 µM |
| O=c1[nH][nH]c2ccc(-c3nc4c(c(Nc5n[nH]c6ccccc56)n3)N(Cc3ccccc3)CCC4)c(C(F)(F)F)c12 | < 1 µM |
| O=C(CCNc1cc(C2CC2)[nH]n1)Oc1ccc2c(=O)[nH][nH]c2c1 | < 1 µM |
| NCCOc1cc(Nc2n[nH]c3ccccc23)nc(-c2cc3c(=O)[nH][nH]c3cc2C(F)(F)F)c1 | < 1 µM |
| O=c1[nH][nH]c2cc(Sc3cccc(Nc4n[nH]c5ccccc45)n3)ccc12 | < 1 µM |
| O=c1[nH][nH]c2cc(CCC3CCC(Nc4nccnn4)C3)ccc12 (centres undefined) | < 1 µM |
| Cc1cnc(NC(CCOc2ccc3c(=O)[nH][nH]c3c2)c2ccccc2)s1 (centres undefined) | < 1 µM |
| O=c1[nH][nH]c2cc(Sc3nc(Nc4cc(C5CC5)[nH]n4)cc(N4CCOCC4)n3)ccc12 | < 1 µM |
| O=c1[nH][nH]c2cc(SC3COCC(Nc4nccnn4)C3)ccc12 (centres undefined) | < 1 µM |
| Cc1cnc(NC(CCCc2ccc3c(=O)[nH][nH]c3c2)c2ccccc2)s1 (centres undefined) | < 1 µM |
| Nc1cncc(-c2nc(Nc3n[nH]c4ccccc34)nc(-c3cc4c(=O)[nH][nH]c4cc3C(F)(F)F)n2)c1 | < 1 µM |
| O=c1[nH][nH]c2cc(Nc3ncc(N4CCOCC4)c(Nc4cc(C5CC5)[nH]n4)n3)ccc12 | < 1 µM |
| Cn1cnc(NC(CCNc2ccc3c(=O)[nH][nH]c3c2)c2ccccc2)c1 (centres undefined) | < 1 µM |
| O=c1[nH][nH]c2cc(Cl)c(-c3cc(Nc4cc(C5CC5)[nH]n4)c4ccccc4n3)cc12 | < 1 µM |
| Cc1cc(Nc2nc(CSc3ccc4[nH][nH]c(=O)c4c3)nc3ccccc23)n[nH]1 | < 1 µM |
| Cc1cc(Nc2cc(-c3ccco3)[nH]n2)nc(-c2ccc3[nH][nH]c(=O)c3c2)n1 | < 1 µM |
| Cn1cnc(NCCCOc2ccc3c(=O)[nH][nH]c3c2)c1 | < 1 µM |

| SMILES | Ki |
| --- | --- |
| Cc1cc(Nc2cc(-c3ccccc3)nc(Nc3ccc4c(=O)[nH][nH]c4c3)n2)n[nH]1 | < 1 µM |
| Cn1cnc(NC(=O)CC(=O)Oc2ccc3c(=O)[nH][nH]c3c2)c1 | < 1 µM |
| O=c1[nH][nH]c2cc(NC3COCC(Nc4ccccn4)C3)ccc12 (centres undefined) | < 1 µM |
| O=c1[nH][nH]c2ccc(-c3nc(Nc4n[nH]c5ccccc45)cc(-c4ccccc4)n3)c(C(F)(F)F)c12 | < 1 µM |
| O=c1[nH][nH]c2cc(OC3CCCC(Nc4ccccn4)C3)ccc12 (centres undefined) | < 1 µM |
| Cn1cnc(NC2COCC(SCc3ccc4c(=O)[nH][nH]c4c3)C2)c1 (centres undefined) | < 1 µM |
| Cn1cnc(NC2COCC(Nc3ccc4c(=O)[nH][nH]c4c3)C2)c1 (centres undefined) | < 1 µM |
| Cn1cnc(NC2CCCC2CCc2ccc3c(=O)[nH][nH]c3c2)c1 (centres undefined) | < 1 µM |
| O=c1[nH][nH]c2ccc(OCc3nc(Nc4cc(C5CC5)[nH]n4)c4ccccc4n3)cc12 | < 1 µM |
| O=c1[nH][nH]c2cc(C3CC3)c(-c3nc(Nc4n[nH]c5c(F)cc(F)cc45)c4ccccc4n3)cc12 | < 1 µM |
| CCCCOC(=O)c1cc(Nc2cc(C)[nH]n2)nc(Sc2ccc3c(=O)[nH][nH]c3c2)n1 | < 1 µM |
| O=c1[nH][nH]c2cc(NCCONc3cc(C4CC4)[nH]n3)ccc12 | < 1 µM |
| O=c1[nH][nH]c2cc(COC3CCCC3Nc3cc(C4CC4)[nH]n3)ccc12 (centres undefined) | < 1 µM |
| O=c1[nH][nH]c2cc(Nc3ncc(Nc4ccccc4)c(Nc4cc(C5CC5)[nH]n4)n3)ccc12 | < 1 µM |
| O=c1[nH][nH]c2ccc(CNc3cc(Nc4cc(C5CC5)[nH]n4)ccn3)cc12 | < 1 µM |
| Cc1cc(Nc2cc(-c3cc4c(=O)[nH][nH]c4cc3Cl)nc3c2CCCC3)n[nH]1 | < 1 µM |
| O=c1[nH][nH]c2cc(Nc3nc(Nc4n[nH]c5ncccc45)c4ccccc4n3)ccc12 | < 1 µM |
| Cc1cc(Nc2nc(-c3cc4c(=O)[nH][nH]c4cc3-c3ccccc3)nc3ccccc23)n[nH]1 | < 1 µM |
| Cc1cnc(NCCONc2ccc3c(=O)[nH][nH]c3c2)s1 | < 1 µM |
| CC(C)(c1ccc2c(=O)[nH][nH]c2c1)C1CCC(Nc2ccccn2)C1 (centres undefined) | < 1 µM |
| CCc1cc(Nc2cc(C)[nH]n2)nc(C2(c3ccc4c(=O)[nH][nH]c4c3)CCC2)n1 | < 1 µM |
| CC(=O)Nc1cccc(-c2cc(Nc3cc(C)[nH]n3)nc(Oc3ccc4c(=O)[nH][nH]c4c3)n2)c1 | < 1 µM |
| Cc1cc(Nc2cc(C(C)(C)C)nc(Sc3ccc4c(=O)[nH][nH]c4c3)n2)n[nH]1 | < 1 µM |
| COCc1cc(Nc2n[nH]c3ccccc23)nc(-c2ccc3[nH][nH]c(=O)c3c2)n1 | < 1 µM |
